The target in data set [1] is T1, glucocerebrosidase (Gcase) (Homo sapiens, UniProt P04062).
T1 sequence (P04062 40-536): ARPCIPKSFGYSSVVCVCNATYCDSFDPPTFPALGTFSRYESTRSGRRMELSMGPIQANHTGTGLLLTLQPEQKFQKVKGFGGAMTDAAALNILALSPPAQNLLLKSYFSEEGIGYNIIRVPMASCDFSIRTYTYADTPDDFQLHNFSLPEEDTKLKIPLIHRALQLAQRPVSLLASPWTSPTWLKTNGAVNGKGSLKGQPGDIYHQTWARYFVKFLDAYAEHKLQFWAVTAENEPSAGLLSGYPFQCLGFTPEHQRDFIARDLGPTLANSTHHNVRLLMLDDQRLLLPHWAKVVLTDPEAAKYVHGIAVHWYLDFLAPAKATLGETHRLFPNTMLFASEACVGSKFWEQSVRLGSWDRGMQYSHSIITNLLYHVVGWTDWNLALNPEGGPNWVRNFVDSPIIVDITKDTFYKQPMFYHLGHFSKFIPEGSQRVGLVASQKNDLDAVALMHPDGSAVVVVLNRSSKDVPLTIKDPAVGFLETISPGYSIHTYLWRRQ
The experiment in a line: Glucocerebrosidase (Gcase) activation assay, 4-methylumbelliferyl-beta-D-glucopyranoside substrate, with saposin C. The format is biochemical. The essentials: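 Compounds tested at 1.0 and 0.1 μM, then in 8-point 3-fold curves, were pre-incubated 30 min at room temperature with 10 nM GCase plus 100 nM saposin C in PS/triton micelles, pH 4.7. Reaction with substrate (2 mM in micelles before mixing) ran 15 min; stopped at pH 12.5, read at ex 365/em 440 nm.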

Data set [2] in a line: Compound solubility in water. In kind it is physicochemical.
Setting [3] is: test compound at 0.1 μM, read-out: Percent Gcase Activation, 0.1 μM Test Compound.
The mark [4] stands for this setting: test compound at 1.0 μM, read-out: Percent Gcase Activation, 1 μM Test Compound.
The mark [5] stands for this setting: 0.1 μM test compound, read-out: Percent Gcase Activation 0.1 μM Test Compound.
Where [6] appears, read: 1 μM test compound, read-out: Percent Gcase Activation 1 μM Test Compound.

≈ marks a conversion by molar mass, not a printed value. Read-outs that look alike come from different tables or passages of the source. Bounds are passed on as bounds.

By solubility is commonly meant the dissolved amount per volume that the medium holds.

Take `Cc1cc(-c2ccc(F)cc2)nc2c(C(=O)N[C@@H](C3CC3)C(F)(F)F)ncn12` [IV-46]: in data set [1] (setting [3]), the activation at 0.1 µM is over 20%. Further, in data set [1] (setting [4]), the activation at 1 µM is over 60%. The same compound returned a solubility in data set [2] (in water) of 0.8 µg/mL (≈ 2.04 µM).
As for `CCc1cc(-c2ccsn2)nc2c(C(=O)NC(C3CC3)C(F)(F)F)ncn12` (stereo not drawn) [IV-106], the activation at 0.1 µM in data set [1] (setting [3]) was over 20%. In data set [1] (setting [4]), the activation at 1 µM was over 60%. The compound further displayed a solubility in data set [2] (in water) of 0.6 µg/mL (≈ 1.52 µM).
For `Cc1cc(-c2cc(F)cc(F)c2)nc2c(C(=O)NC(C)(C)C)ncn12` [III-125], in data set [1] (setting [5]), the activation at 0.1 µM was over 20%. In addition, the activation at 1 µM in data set [1] (setting [6]) is over 60%. In addition, the solubility in data set [2] stood at 0.2 µg/mL (≈ 0.581 µM).
Regarding `CCOc1cccc(-c2cc(C)n3cnc(C(=O)NC(C)(C)C4CC4)c3n2)n1` [III-156], the activation at 0.1 µM in data set [1] (setting [5]) was under 10%. Further, the activation at 1 µM in data set [1] (setting [6]) was in the range of 30 to 60%. In data set [2], the solubility came to 0.8 µg/mL (≈ 2.11 µM).
On to `Cc1cc(NC(=O)c2ccccc2)nc2c(C(=O)NC(C3CC3)C(F)(F)F)ncn12` (stereo not drawn) [IV-6], for which the activation at 0.1 µM in data set [1] (setting [3]) is under 10%. Further, the activation at 1 µM in data set [1] (setting [4]) was 30 to 60%. In data set [2] (in water), this compound returned a solubility of 15.1 µg/mL (≈ 36.2 µM).
As to `Cc1cc(-c2cccc(C#N)n2)nc2c(C(=O)NC(C3CC3)C(F)(F)F)ncn12` (stereo not drawn) [IV-39], in data set [1] (setting [3]), the activation at 0.1 µM is under 10%. Moreover, in data set [1] (setting [4]), the activation at 1 µM is 30 to 60%. In data set [2] (in water), this compound returned a solubility of 0.3 µg/mL (≈ 0.749 µM).
In the case of `COc1c(C#N)cccc1-c1cc(C)n2cnc(C(=O)N[C@@H](C)C3CC3)c2n1` [IV-65], the activation at 0.1 µM in data set [1] (setting [3]) is under 10%. Further, the activation at 1 µM in data set [1] (setting [4]) is under 30%. This compound also showed a solubility in data set [2] (in water) of 15.6 µg/mL (≈ 41.6 µM).
Consider `Cc1cc(-c2ccco2)nc2c(C(=O)NC(C3CC3)C(F)(F)F)ncn12` (stereo not drawn) [IV-83], for which the activation at 0.1 µM in data set [1] (setting [3]) is over 20%. Moreover, the activation at 1 µM in data set [1] (setting [4]) was over 60%. This compound showed a solubility in data set [2] (in water) of 1.2 µg/mL (≈ 3.29 µM).

The values above are taken from US9920061B2, “Imidazo[1,5-A]pyrimidinyl carboxamide compounds and their use in the treatment of medical disorders” (Lysosomal Therapeutics Inc., priority 2016, dated 2018).
